According to US20070270436A1, “NOVEL AMINO- AND IMINO-ALKYLPIPERAZINES” (Recordati Ireland Limited, priority 2006, published 2007):
Read-outs that look alike come from different tables or passages of the source.

What was measured:
[1] = biological target: T1, human 5HT1A-serotonergic receptor (Homo sapiens, UniProt P08908); assay: Radioligand binding to recombinant 5-HT1A receptor ([3H]8-OH-DPAT, HeLa cell membranes); settings: 1 nM [3H]8-OH-DPAT; Ki from IC50 by the Cheng equation; read-out: Ki (nM), binding affinity for 5HT1A receptor
T1 construct: expressed in transfected cells; host or cells: HeLa (human), stably transfected; membranes
T1 sequence (P08908 1-422): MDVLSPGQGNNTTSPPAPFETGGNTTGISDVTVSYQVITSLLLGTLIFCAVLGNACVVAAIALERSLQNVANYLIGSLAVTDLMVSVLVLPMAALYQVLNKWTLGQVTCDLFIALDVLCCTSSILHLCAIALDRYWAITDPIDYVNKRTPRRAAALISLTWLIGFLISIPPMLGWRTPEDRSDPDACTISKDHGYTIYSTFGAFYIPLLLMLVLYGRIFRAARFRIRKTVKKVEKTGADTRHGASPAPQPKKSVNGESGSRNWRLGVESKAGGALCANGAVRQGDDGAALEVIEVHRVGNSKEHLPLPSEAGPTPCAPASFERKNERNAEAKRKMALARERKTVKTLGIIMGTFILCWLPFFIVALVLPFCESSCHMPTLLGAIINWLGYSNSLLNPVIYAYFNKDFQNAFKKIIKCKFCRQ
Description: Genomic clone G-21 encoding the human 5HT1A-serotonergic receptor was stably transfected in a human cell line (HeLa). HeLa cells were grown as monolayers in Dulbecco's modified Eagle medium (DMEM), containing 10% fetal bovine serum and gentamycin (100 μg/ml) at 37° C. in a humidified atmosphere of 5% CO2 and air. The cells were detached from the growth flask at 95% confluence by a cell scraper and were lysed in cold 5 mM Tris and 5 mM EDTA buffer (pH 7.4). The homogenates were centrifuged at 40000×g×20 minutes and the pellets were resuspended in a small volume of cold 5 mM Tris and 5 mM EDTA buffer (pH 7.4) and immediately frozen and stored at −70° C. until use. On the day of experiment, the cell membranes were resuspended in incubation buffer: 50 mM Tris (pH 7.4), 2.5 mM MgCl2, 10 μM pargyline (Fargin et al., Nature 335, 358-360, 1988). The membranes were incubated in a final volume of 0.32 ml for 30 minutes at 30° C. with 1 nM [^3H]8-OH-DPAT, in the absence or presence of the test compounds. Non-specific binding was determined in the presence of 10 μM 5-HT. Incubation was stopped by addition of cold Tris buffer and rapid filtration through UniFilter GF/C plate.
The affinity of the tested compounds was evaluated as inhibition of specific binding of the radioligand to 5-HT1A receptor (IC50) by using the non-linear curve-fitting program Allfit (De Lean et al., Am. J. Physiol. 235, E97-E102 (1978)). The IC50 value was converted to an affinity constant (Ki) by the equation of Cheng et al., Biochem. Pharmacol. 22, 3099-3108 (1973).

[2] = biological target: T2, human cloned 5-HT1A receptors (Homo sapiens, UniProt P08908); assay: [35S]GTPγS binding, functional activity; type: biochemical; design: key: neutral antagonists (NA); inverse agonists (IA); settings: HeLa membranes with human 5-HT1A
T2 construct: expressed in transfected cells; host or cells: HeLa (human), stably transfected; membranes
T2 sequence (P08908 1-422): T1 sequence (P08908 1-422)
Description: On the date of the experiment, cell membranes from HeLa cells transfected with human cloned 5-HT1A receptors were resuspended in buffer pH 7.4 containing 20 mM HEPES, 3 mM MgCl2 and 120 mM NaCl (Stanton, J. A.; Beer, M. S. Eur. J. Pharmacol. 320, 267-275, 1997). The membranes were incubated with 10 μM GDP and decreasing concentrations of test drugs (from 100 μM to 0.1 nM) or decreasing concentrations of 5-HT (from 100 μM to 0.1 nM, reference curve) for 20 min at 30° C. in a final volume of about 0.25 ml. [^35S]GTPγS (200-250 pM in 10 μl) was added to samples and incubated for a further 30 min at 30° C. Non-specific binding was determined in the presence of 10 μM GTPγS. The incubation was stopped by addition of ice-cold HEPES buffer and rapid filtration on Unifilter GF/C filters, using a Filtermate cell harvester (Packard). The filters were washed four times with total 1.2 ml of same buffer. Radioactivity was counted by liquid scintillation spectrometry with efficiency >90% (TopCount Packard). Stimulation of [^35S]GTPγS binding induced by the compounds tested was expressed as % increase in binding above basal value, being the maximal stimulation observed with 5-HT taken as 100%. The concentration-response curve of the agonistic activity was analyzed by non linear fitting program (De Lean et al., Am. J. Physiol. 235, E97-E102, 1978).
A stimulation of [^35S]GTPγS binding represented the functional correlate of the binding of an agonist compound at the 5-HT1A receptors. Stimulation induced by the endogenous ligand 5-HT was considered the maximal stimulation attainable. Compounds stimulating [^35S]GTPγS binding at a lower level were considered as partial agonists. […] Compounds that reduced [^35S]GTPγS binding were considered as inverse agonists.

5-HT1A receptors = biological target: T3, 5-HT1A receptors (Rattus norvegicus, UniProt P19327); assay: Inhibition of serotonergic syndrome (forepaw treading) induced by 8-OH-DPAT in rats (post-synaptic antagonism); type: in vivo; settings: rat, 10 mg/kg p.o.
T3 construct: from tissue; host or cells: living male Sprague-Dawley rats (whole animal, behavioural read-out)
T3 sequence (P19327 1-422): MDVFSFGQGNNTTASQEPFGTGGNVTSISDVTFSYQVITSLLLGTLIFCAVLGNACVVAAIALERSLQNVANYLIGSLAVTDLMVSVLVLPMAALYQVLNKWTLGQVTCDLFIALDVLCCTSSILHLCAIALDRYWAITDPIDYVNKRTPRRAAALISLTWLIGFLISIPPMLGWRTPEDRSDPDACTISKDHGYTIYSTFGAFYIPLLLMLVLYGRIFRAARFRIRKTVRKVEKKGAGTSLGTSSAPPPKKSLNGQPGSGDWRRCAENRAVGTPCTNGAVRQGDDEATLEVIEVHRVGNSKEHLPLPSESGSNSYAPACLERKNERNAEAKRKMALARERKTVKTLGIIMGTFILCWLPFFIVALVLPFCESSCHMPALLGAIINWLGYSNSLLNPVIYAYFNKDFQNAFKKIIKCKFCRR
Description: The inhibitory effect of 5-HT1A-receptor antagonists on stereotyped forepaw treading induced in rats by subcutaneous injection of 8-OH-DPAT was evaluated by the method of Tricklebank (Tricklebank et al., Eur. J. Pharmacol., 117: 15, 1985) with minor modifications as described below.
Male Sprague-Dawley rats [Crl: CD® (SD) IGS BR] weighing 150-175 g from Charles River Italia were used. The animals were housed with free access to food and water and maintained on a forced 12-hour-light/12-hour-dark cycle at 22-24° C. of temperature. On the day of the experiment, the rats were placed singly in clear plastic containers, 10-15 minutes before oral administration of the vehicle or compounds to be tested. For evaluation of antagonistic activity, the compounds were administered 1 and 4 hours before induction of stereotypy by 8-OH-DPAT (1 mg/kg subcutaneously). Observation sessions lasted 30 seconds and began 3 minutes after 8-OH-DPAT treatment and were repeated every 3 minutes over a period of 15 minutes.
The appearance of the symptoms induced by postsynaptic stimulation of 5-HT1A receptors was noted, and the intensity was scored using an intensity scale in which: 0=absent, 1=equivocal, 2=present and 3=intense. Behavioural scores for treated rats were accumulated throughout the observation time (5 observation periods) and expressed as mean values of 4 rats/dose. Change in mean values of treated animals in comparison with control (vehicle) group, expressed as per-cent inhibition, was used to quantify the antagonistic activity.
In order to quantitate the potency of the compound of Example 24 in inhibiting the stereotypy (forepaw treading) induced by 8-OH-DPAT, an ED50 value (dose inhibiting by 50% the forepaw treading) was evaluated by means of linear regression using the least square method.

[3] = 1 h before 8-OH-DPAT 1 mg/kg s.c., read-out: % Inhibition of forepaw treading, 1 h
[4] = 4 h before 8-OH-DPAT 1 mg/kg s.c., read-out: % Inhibition of forepaw treading, 4 h

SMILES	Ki [1] [nM]	Functional Activity [2]	inhibition at 10 mg/kg (5-HT1A receptors; [3]) [%]	inhibition at 10 mg/kg (5-HT1A receptors; [4]) [%]
CON[C@H](C1CCCCC1)[C@@H](CCN1CCN(c2ccccc2OC)CC1)c1ccccc1F (racemic) [Example 4a, (RS,SR)-N-{1-Cyclohexyl-2-(2-fluorophenyl)-4-[4-(2-methoxyphenyl)piperazin-1-yl]butyl}-O-methylhydroxylamine]	0.68	IA	–	–
COc1ccccc1N1CCN(CC[C@@H](c2ccccc2F)[C@H](NC(C)=O)C2CCCCC2)CC1 (racemic) [Example 7, N-{(RS,SR)-1-Cyclohexyl-2-(2-fluorophenyl)-4-[4-(2-methoxyphenyl)-piperazin-1-yl]butyl}acetamide]	1.69	IA	87	86
COc1ccccc1N1CCN(CC[C@@H](c2ccccc2F)[C@@H](C2CCCCC2)N(C(C)=O)C(C)=O)CC1 (racemic) [Example 8, N-Acetyl-N-{(RS,SR)-1-cyclohexyl-2-(2-fluorophenyl)-4-[4-(2-methoxyphenyl)piperazin-1-yl]butyl}acetamide]	0.68	IA	–	–
COC(=O)N[C@H](C1CCCCC1)[C@@H](CCN1CCN(c2ccccc2OC)CC1)c1ccccc1F (racemic) [Example 17, (RS,SR)-{1-Cyclohexyl-2-(2-fluorophenyl)-4-[4-(2-methoxyphenyl)-piperazin-1-yl]butyl}carbamic acid methyl ester]	0.68	IA	75	92
COc1ccccc1N1CCN(CC[C@@H](c2ccccc2F)[C@@H](C2CCCCC2)N(C)C(=S)N(C)C)CC1 (racemic) [Example 53, 1-{(RS,SR)-1-Cyclohexyl-2-(2-fluorophenyl)-4-[4-(2-methoxyphenyl)piperazin-1-yl]butyl}-1,3,3-trimethylthiourea]	1.7	IA	–	–
COc1ccccc1N1CCN(CC[C@@H](c2ccccc2F)[C@H](NC(=S)N(C)C)C2CCCCC2)CC1 (single isomer, unassigned) [Example 24A, 3-{(1R,2S) or (1S,2R)-1-Cyclohexyl-2-(2-fluorophenyl)-4-[4-(2-methoxyphenyl)piperazin-1-yl]butyl}-1,1-dimethylthiourea]	0.7	IA	–	–
COc1ccccc1N1CCN(CCC(c2ccccc2F)C(NCc2ccccc2)C2CCCCC2)CC1 (stereo not drawn) [Example 13, (RS,SR)- and (RS,RS)-N-Benzyl-{1-cyclohexyl-2-(2-fluorophenyl)-4-[4-(2-methoxyphenyl)piperazin-1-yl]butyl}amine]	0.3	IA	–	–
CC(=O)N(C)C(C1CCCCC1)C(CCN1CCN(c2cccc3c2OCCO3)CC1)c1ccccc1F (centres unmarked) [Example 41, N-[1-Cyclohexyl-4-[4-(2,3-dihydrobenzo[1,4]dioxin-5-yl)piperazin-1-yl]-2-(2-fluoro-phenyl)butyl]-N-methylacetamide]	0.9	IA	–	–
